Assay results reported in patent US20040248211A1, “ICAM-related protein” (priority 1992, published 2004).

Assays:
[1] = tested on: SKW3 cell binding to ICAM-R; assay: Peptide inhibition of SKW3 cell adhesion to soluble ICAM-R coated plastic; assay type: cell-based, human; conditions: peptide at 1-2 mg/ml; PMA; soluble ICAM-R coated wells
Excerpt: Based on amino acid sequence alignment with known β1 integrin binding domains in fibronectin and based on epitope mapping of anti-ICAM-R monoclonal antibodies that block cell adhesion (see Table 11 in Example 22), ICAM-R peptides corresponding to potential integrin binding sites were synthesized by Macromolecular Resources (Colorado State University, Fort Collins, Colo.). Four ICAM-R sequences which lie between or at the border of predicted beta strands in domains 1 and 3 of were chosen. Similar but not identical β-strand predictions for ICAM-1 are set out in Staunton et al., Cell, 61: 243-254 (1990). Inhibition was assayed using a system involving cell adhesion to soluble ICAM-R coated plastic. Calcein-labeled cells (see Example 7 Section A above) were incubated with peptide at 1-2 mg/ml for 20 minutes at 25° C. and the cells were transferred to wells of a 96-well plate previously coated with soluble ICAM-R (see Example 10) and containing 10 μg/ml final concentration phorbol 12-myristate 13-acetate (PMA). After 50 minutes, the plate was inverted in PBS for 10 minutes to remove unbound cells. Bound cells were quantitated using a fluorescence concentration analyzer.

Jurkat T cells = assay: MIP-1 alpha ELISA, Jurkat on co-immobilized antibodies; assay type: cell-based, human; conditions: anti-ICAM-R 10 μg/ml co-immobilized with sub-optimal OKT3; OKT3 = sub-optimal concentration alone
Protocol: In addition to induction in monocytes, the expression of MIP-1 alpha in the Jurkat T leukemic cell line upon treatment with ICR-5.1, ICR-4.2 or ICR-9.2 was also examined. A sub-optimal dose of anti-CD3 antibody OKT3 (500 ng/ml) in PBS-CMF was plated onto flat-bottomed 96-well polystyrene plates and incubated overnight at 4° C. Then, after removing well contents, monoclonal antibody OKT3, ICR-5.1, ICR-4.2, or ICR-9.2 (10 μg/ml in PBS-CMF) was plated overnight at 4° C. Wells were blocked with 1% BSA in PBS-CMF at 37° C. for 1 hour and then rinsed in PBS-CMF. Jurkat T cells were seeded into wells at 2×10^5/well in RPMI/10%FCS+10 μg/ml polymyxin B—SO4. Cells were incubated in wells for 4, 6, or 8 hours or overnight at 37° C. in 5% CO2. Supernatants were harvested by transferring well contents to round-bottomed 96-well polystyrene plates, harvested by centrifuging for 5 minutes at 1200 rpm and by re-transferring to new round-bottomed plates. MIP-1 alpha release into the cell supernatant was assayed by a specific ELISA for MIP-1 alpha.

human PBL = assay: Tyrosine phosphorylation in PBL after crosslinking; assay type: cell-based; conditions: soluble antibody 30 ug/ml, goat anti-mouse IgG 100 ug/ml
Protocol: Human PBL was obtained by Ficoll-Hypaque centrifugation and were incubated for 5 minutes with soluble ICR-4.2, OKT3 or anti-HLA-(1×10^7 cells were incubated with each antibody at 30 ug/ml). The cells were then washed and goat anti-mouse IgG (Cappell) was added to a final concentration of 100 ug/ml. After varying periods of time, the cells were lysed in detergent and lysates were electrophoresed on a 10% acrylamide gel, transferred to blotting paper. Blots were then probed with the anti-phosphotryosine antibody 4G10.

Jurkat T leukemic cells = assay: F-actin and G-actin cell content; assay type: cell-based, human; conditions: ICR-1.1 without gam
Protocol: Cellular shape changes (such as cell spreading) as well as T-cell activation are associated with changes in the cytoskeletal actin network manifested by alteration of the ratio of globular actin (G-actin) to filamentous actin (F-actin). To test whether the engagement by ICAM-R antibodies of ICAM-R expressed on Jurkat T leukemic cells would induce changes in cellular actin ratios, studies measuring F-actin and G-actin cell content were carried out by methods known in the art.

HL60 cells = assay: IL-8 release from HL60; assay type: cell-based, human
Protocol: Monocytes were isolated by elutriation from peripheral blood of normal donors. […] After blocking free sites, the cells were placed into the wells in medium. […] Those cells plated in wells treated with BSA plus or minus LPS were rounded and not spread. After 8 or 18 hours of incubation at 37° C., the medium was removed and assayed for IL-8 immunoreactivity. […] By 18 hours, IL-8 levels in media from ICR monoclonal antibody wells were much elevated over control levels. […] Similar experiments with monocytic cell lines (U937 and HL60) to determine if ICR monoclonal antibody can induce IL-8 release were conducted. U937 cells responded to each of the ICR monoclonal antibody treated wells by releasing IL-8 into the conditioned medium. […] No detectable morphological changes were detected with the U937 or HL60 cells.

THP-1 cells = assay: MIP-1 alpha secretion by THP-1 on immobilized soluble LFA-1; assay type: cell-based, human; conditions: background approximately 100 pg/ml
Protocol: A soluble version of LFA-1, when immobilized onto plastic wells, induced THP-1 cells to secrete approximately […] MIP-1 alpha, whereas background levels were approximately 100 pg/ml.

## ICAM-1 70-74: ICAM-1 domain 1 peptide (DGQST, SEQ ID NO: 25)
[1]
  % Inhibition CD18-Dependent Binding (SKW3): did not inhibit binding

## OKT3: anti-CD3 antibody [reference compound]
Jurkat T cells
  MIP-1 alpha expression relative to BSA background: three-fold
Human PBL
  tyrosine phosphorylation after crosslinking: Phosphorylation of substrates were also observed
Jurkat T leukemic cells; OKT3 plus gam
  time to peak F-actin content: ≤ 10 min
Jurkat T leukemic cells; OKT3 plus goat anti-mouse crosslinker (gam)
  F-actin content: rapid, transient increase in F-actin content

## lipopolysaccharide [LPS]
HL60 cells
  IL-8 release: did induce a marked release

## soluble version of LFA-1: soluble version of LFA-1 immobilized onto plastic wells
THP-1 cells
  MIP-1 alpha secreted: approximately 1000 μg/ml
